Results from PubChem BioAssay (NCI).
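In this assay, cells in 96-well plates receive the compound at five concentrations for 48 hours. Endpoints are linearly interpolated between the surrounding concentrations. Here, GI50 denotes the concentration required for 50% inhibition of growth. Definition used: TGI = concentration required for complete inhibition of growth.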

Assays:
Experiment in all cases: growth of human tumour cells (NCI), 48 h
ACHN renal = system: ACHN renal
CCRF-CEM leukemia = system: CCRF-CEM leukemia
DU-145 prostate = system: DU-145 prostate
HCC-2998 colon = system: HCC-2998 colon
HT29 colon = system: HT29 colon
LOX IMVI melanoma = system: LOX IMVI melanoma
MDA-MB-435 = system: MDA-MB-435
OVCAR-4 ovarian = system: OVCAR-4 ovarian
SF-295 CNS = system: SF-295 CNS
SK-MEL-5 melanoma = system: SK-MEL-5 melanoma

Structure (SMILES) | GI50 (ACHN renal) [µM] | TGI (ACHN renal) [µM] | GI50 (CCRF-CEM leukemia) [µM] | TGI (CCRF-CEM leukemia) [µM] | GI50 (DU-145 prostate) [µM] | TGI (DU-145 prostate) [µM] | GI50 (HCC-2998 colon) [µM] | TGI (HCC-2998 colon) [µM] | GI50 (HT29 colon) [µM] | TGI (HT29 colon) [µM] | GI50 (LOX IMVI melanoma) [µM] | TGI (LOX IMVI melanoma) [µM] | GI50 (MDA-MB-435) [µM] | TGI (MDA-MB-435) [µM] | GI50 (OVCAR-4 ovarian) [µM] | TGI (OVCAR-4 ovarian) [µM] | GI50 (SF-295 CNS) [µM] | TGI (SF-295 CNS) [µM] | GI50 (SK-MEL-5 melanoma) [µM] | TGI (SK-MEL-5 melanoma) [µM]
CC(C)(C)c1cc(C(C)(C)C)cc(S(=O)(=O)Nc2cc3ccccc3cc2C(=O)NCCN)c1 | 1.7 | 3.18 | 2.55 | 6.41 | 1.82 | 3.47 | 1.75 | 3.24 | 1.93 | 3.95 | 1.6 | 3.02 | 1.68 | 3.18 | 1.86 | 3.94 | 1.72 | 3.17 | 1.75 | 3.13
CN1C/C=C\CCOc2cccc(c2)-c2ccnc(n2)Nc2cccc(c2)C1 | 0.0332 | 1.49 | 0.0349 | 1.04 | 0.0562 | 6 | 0.0802 | 0.63 | 0.0497 | 0.976 | 0.0343 | 1.06 | 0.0624 | 0.195 | 0.113 | 1.88 | 0.0616 | 1.1 | 0.0502 | 0.205
O=C1OC(C(O)CO)C(=O)C1=O (centres undefined) | 2860 | > 10000 | 2940 | > 10000 | 1720 | 3130 | > 10000 | > 10000 | 4240 | > 10000 | 1950 | 4990 | 2120 | 4290 | 5580 | > 10000 | 7430 | > 10000 | > 10000 | > 10000
NS(=O)(=O)c1ccc(NC2(C(=O)O)CCCC2)cc1 | – | > 100 | – | > 100 | – | > 100 | – | > 100 | – | > 100 | – | > 100 | – | > 100 | – | > 100 | – | > 100 | – | > 100
Cn1c2c(c3ccccc31)CC1c3c(c4ccccc4n3C)CC21 (centres undefined) | – | > 100 | – | > 100 | – | > 100 | – | > 100 | – | > 100 | – | > 100 | – | > 100 | – | > 100 | – | > 100 | – | > 100
CN1c2ccc(Cl)cc2C(=O)NC1c1ccc([N+](=O)[O-])s1 (centres undefined) | – | 51.7 | – | > 100 | – | 45.1 | – | 31.1 | – | 39.1 | – | 28.8 | – | 31.4 | – | 71.5 | – | 85.7 | – | 31.6
COc1cc2ncnc(Nc3ccc(C)c(O)c3)c2cc1OC | 0.799 | > 25 | > 25 | > 25 | 7.91 | > 25 | > 25 | > 25 | 14.7 | > 25 | 10.3 | > 25 | > 25 | > 25 | 9.91 | > 25 | > 25 | > 25 | > 25 | > 25
CN1CCN(CCCOc2ccc3nc(Nc4ccc(Cl)c(C(F)(F)F)c4)ccc3c2)CC1 | 12.5 | 32 | 6 | 22.1 | 11.9 | 24.3 | 14.8 | 30.4 | 2.67 | 8.38 | 4.07 | 15.9 | 11.7 | 24.2 | 12.7 | 26.4 | 14.3 | 29.7 | 15.1 | 29.1
CC(C)n1nc(-c2cc3cc(O)ccc3[nH]2)c2c(N)ncnc21 | 0.224 | 5.18 | 0.345 | 4.28 | 0.498 | 12 | 0.572 | 17.8 | 0.465 | 28.7 | 0.309 | – | 0.219 | 1.77 | 0.0827 | 0.923 | 0.122 | 0.87 | 0.171 | 1.43
CCCCC(O)(c1ccc(Cl)cc1)C(CN1CCOCC1)c1ccc(Cl)cc1 (centres undefined) | 14.4 | 28.5 | 14.3 | 36.2 | 15.7 | 29.8 | 12.3 | 26.8 | 4.14 | 18.2 | 14.4 | 28.3 | 15.3 | 39 | 13.6 | 29 | 14.4 | 30.7 | 13.8 | 28.7
c1cc(CNC23CC4CC(CC(C4)C2)C3)cc(C[N+](Cc2cccc(CNC34CC5CC(CC(C5)C3)C4)c2)(Cc2cccc(CNC34CC5CC(CC(C5)C3)C4)c2)Cc2cccc(CNC34CC5CC(CC(C5)C3)C4)c2)c1 (centres undefined) | 3.65 | 8.92 | 6.1 | 209 | 6.16 | 19.3 | 5.11 | 22.2 | 3.58 | 11.8 | 2.11 | 5.3 | 3.45 | 8.81 | 4.85 | 22.8 | 12.7 | 43.6 | 6.36 | 26.3
